Measured values: US7754896B2, “Indol-alanine derivatives as selective S1P4-agonists” (Novartis AG, priority 2004, dated 2010)

Key:
S1P3 = target: T1, S1P3 (Homo sapiens, UniProt Q99500); test: Calcium mobilization assay, CHO cells expressing S1P3; type: cell-based
T1 construct: expressed in transfected cells
Text: Human S1P1 (GenBank™ accession number M31210) and S1P3 (GenBank™ accession number X83864) cDNA containing the myc sequence in front to the human S1P1 and S1P3 sequences are inserted in the pcDNA 3.1 vector. The vectors are sequenced to completion to confirm the correctness of the construct. The human S1P2 (GI: 4090955, TREMBL: 0195136) is cloned by a PCR based method. Lung cDNA (marathon cDNA) is obtained (BD Biosciences Chontech, Palo Alto, Calif. 94303, USA). […] The amplified product of around 1100 bp is analyzed by standard agarose gel-electrophoresis. […]
CHO cells are plated in black Costar plate (96 or 384 well, 50,000 cells or 12,500 cells, respectively) in a MEM with FCS and cultured for 20-24 h at 37° C. in a CO2 incubator. […] After measuring the baseline for 40 sec, the agonist in HBSS is added and the fluorescence is measured at intervals of 2 sec for 3 to 5 min. […]
(§1) The compounds mentioned in this application are tested for specificity, e.g. the activity they have in the parental cell line prior transformation with the S1P4 cDNA and for selectivity on CHO cells lines transformed with the S1P1, S1P2, S1P3, and S1P5. […] For example, S1P4 specific and selective compounds may have an EC50 (apparent EC50) measured at S1P4 that is 10×, preferably 100× lower that that measured in wild type CHO cells or In cell expressing any of the other four S1P receptors.

CHO = test: Calcium mobilization assay, parental CHO cells; type: cell-based; settings: Cricetulus griseus
Experimental: CHO cells are plated in black Costar plate (96 or 384 well, 50,000 cells or 12,500 cells, respectively) in a MEM with FCS and cultured for 20-24 h at 37° C. in a CO2 incubator. After the removal of the culture medium cells are incubated in HBSS medium containing 2 μM Fluo4AM (Molecular Probes, Cat. No, F-1241; 1 mg/ml stock in DMSO), 5 mM probenicid for 1 h at 37° C., rinsed with HBSS buffer, 2.5 mM probenicid and overlaid with the same medium (75 μl for 96-well plates, 50 μl for 384 plates). The plates are transferred to the FLIPR. After measuring the baseline for 40 sec, the agonist in HBSS is added and the fluorescence is measured at intervals of 2 sec for 3 to 5 min. In some cases the cells are pre-treated for 5 h with 50 ng/ml pertussis toxin (Sigma, Cat Nr P2980). […]
as §1

T1 sequence (Q99500 whole entry): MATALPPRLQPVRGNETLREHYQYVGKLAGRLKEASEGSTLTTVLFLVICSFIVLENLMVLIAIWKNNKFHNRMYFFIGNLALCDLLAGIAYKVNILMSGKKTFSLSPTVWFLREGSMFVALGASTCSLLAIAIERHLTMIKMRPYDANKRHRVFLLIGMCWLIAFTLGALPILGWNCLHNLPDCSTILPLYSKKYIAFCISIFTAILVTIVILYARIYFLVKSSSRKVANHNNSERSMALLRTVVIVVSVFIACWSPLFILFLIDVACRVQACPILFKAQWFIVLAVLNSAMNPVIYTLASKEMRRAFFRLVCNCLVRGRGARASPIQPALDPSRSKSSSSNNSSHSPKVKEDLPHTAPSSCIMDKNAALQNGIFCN

Work on `NC(CNC(=O)c1cc2c(-c3ccccc3Cc3ccccc3)cccc2[nH]1)C(=O)O` (centres unmarked) [Example 2] yielded an EC50 (S1P3) of over 6 µM and an EC50 (CHO) of over 6 µM.
